Experimental data published in the supplement of paper PMC3974653.
Structures can show the parent of a compound that is named as a salt.

test system: MTT (mouse pheochromocytoma); experiment: IC50 of cell viability (ATP content); conditions: (24 or 48 h)
In short: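 MTT mouse pheochromocytoma cells (5 µl of 200,000 cells/ml per well, white 1536-well plates, DMEM with 5% FBS and 1% horse serum) were cultured overnight at 37°C, 5% CO2. They then received 23 nl library compound in DMSO by pintool at 8 concentrations (final 0.5 nM to 46 µM) for 24 or 48 hrs. CellTiter-Glo ATP luminescence was read after 15 minutes. Signals were normalised to positive-control (100% inhibition) and DMSO (0%) wells, and IC50 came from a four-parameter logistic fit.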

**Q.** For `OC(=O)C(CC/1=C/C(=O)NC2=CC=CC=C12)NC(=O)C3=CC=C(Cl)C=C3` (stereo unspecified) [REBAMIPIDE], which “IC50 of cell viability” value is on record?
**A.** The value was greater than 46 µM.

**Q.** For `CN1C2=CC(=O)/C(=N\NC(N)=O)C=C2CC1S(=O)(=O)[O-]` (stereo unspecified) [CARBAZOCHROME SODIUM SULFONATE], which “IC50 of cell viability” value is on record?
**A.** The value was greater than 46 µM.

**Q.** With `COc1cc([C@H]2Oc3cc([C@H]4Oc5cc(O)cc(O)c5C(=O)[C@@H]4O)ccc3O[C@@H]2CO)ccc1O` [Silibinin] as the compound, how does the “IC50 of cell viability” value read?
**A.** The value was greater than 46 µM.

**Q.** `CN(C)CC/C=C1\c2ccccc2COc2ccccc21` [Doxepin hydrochloride] was tested. Which “IC50 of cell viability” value did it give?
**A.** The value was greater than 46 µM.

**Q.** How did the “IC50 of cell viability” value turn out when `CN1\C(=C(\O)C2=C(C=CC=C2)[S+]1([O-])=O)C(=O)NC3=NOC(=C3)C` [ISOXICAM] was run?
**A.** The value was greater than 46 µM.

**Q.** For `O=C1OC2(c3ccc(O)cc3Oc3cc(O)ccc32)c2ccccc21` [Fluorescein (free acid)], which “IC50 of cell viability” value is on record?
**A.** Its value is greater than 46 µM.

**Q.** For `CCOC(=O)c1cccc(N)c1` [TRICAINE METHANESULFONATE], which “IC50 of cell viability” value is on record?
**A.** The value was greater than 46 µM.

**Q.** `CCOC1=CC\2=C(NC(C)(C)\C=C2C)C=C1` [Ethoxyquin] was tested. Which “IC50 of cell viability” value did it give?
**A.** The value was greater than 46 µM.

**Q.** How did the “IC50 of cell viability” value turn out when `CCC(CCC(C)C1CCC2C3C\C=C/4CC(O)CC[C@@]4(C)C3CC[C@@]12C)C(C)C` (stereo partly drawn) [beta-SITOSTEROL] was run?
**A.** Its value is greater than 46 µM.

**Q.** `CC(C)NCC(O)c1ccc(O)c(O)c1` (stereo unspecified) [ISOPROTERENOL] was tested. Which “IC50 of cell viability” value did it give?
**A.** Its value is greater than 46 µM.

**Q.** For `N[C@@H](Cc1c[nH]c2ccc(O)cc12)C(=O)O` [5-HYDROXY-L-TRYPTOPHAN], which “IC50 of cell viability” value is on record?
**A.** Its value is greater than 46 µM.

**Q.** With `NC[C@@H]1O[C@@H](O[C@H]2[C@@H](O)[C@H](O[C@@H]3O[C@@H](CO)[C@H](O)[C@H](N)[C@@H]3O)[C@@H](N)C[C@H]2N)[C@H](N)C[C@@H]1O` [Tobramycin] as the compound, how does the “IC50 of cell viability” value read?
**A.** Its value is greater than 46 µM.

**Q.** `CN(C)C(=O)COC(=O)Cc1ccc(OC(=O)c2ccc(NC(=N)N)cc2)cc1` [CAMOSTAT MESILATE] was tested. Which “IC50 of cell viability” value did it give?
**A.** Its value is greater than 46 µM.

**Q.** For `ClCc1ccccc1.O=C1CC2OCC=C3CN4CCC56c7ccccc7N1C5[C@H]2[C@H]3C[C@H]46` (stereo partly specified) [STRYCHNINE SULFATE], which “IC50 of cell viability” value is on record?
**A.** Its value is greater than 46 µM.

**Q.** With `CC(=O)N[C@@H]1C(O[C@H]2O[C@H](C(=O)O)C(O)[C@H](O)[C@H]2O)[C@H](O)[C@@H](CO)O[C@H]1O[C@@H]1C(C(=O)O)O[C@@H](O[C@H]2[C@H](O)[C@@H](CO)OC(O)[C@@H]2NC(C)=O)[C@H](O)[C@H]1O` (stereo partly specified) [HYALURONATE SODIUM] as the compound, how does the “IC50 of cell viability” value read?
**A.** The value was greater than 46 µM.

**Q.** For `N#C[C@@H]1C[C@@H]2C[C@@H]2N1C(=O)[C@@H](N)C12CC3CC(CC(O)(C3)C1)C2` [Saxagliptin], which “IC50 of cell viability” value is on record?
**A.** Its value is greater than 46 µM.

**Q.** With `OCC1(O)OC[C@@H](O)[C@H](O)[C@@H]1O` (stereo partly drawn) [D-(-)-TAGATOSE] as the compound, how does the “IC50 of cell viability” value read?
**A.** The value was greater than 46 µM.

**Q.** How did the “IC50 of cell viability” value turn out when `COc1cc(N[C@@H](C)CCCN)c2ncccc2c1` [Primaquine diphosphate] was run?
**A.** Its value is greater than 46 µM.

**Q.** `CN1[C@@H]2CC[C@H]1CC(OC(c1ccccc1)c1ccccc1)C2.C[S+](=O)([O-])O` (stereo partly specified) [Benztropine] was tested. Which “IC50 of cell viability” value did it give?
**A.** The value was greater than 46 µM.

**Q.** Which “IC50 of cell viability” value does the source give for `CCOCC(O)COc1ccc(NC(=O)CC[S+](C)C)cc1` (stereo unspecified) [SUPLATAST TOSILATE] here?
**A.** Its value is greater than 46 µM.

**Q.** How did the “IC50 of cell viability” value turn out when `c1ccc(-c2nc[nH]c2-c2ccccc2)cc1` [DIPHENYLIMIDAZOLE] was run?
**A.** The value was greater than 46 µM.

**Q.** Which “IC50 of cell viability” value does the source give for `Cc1nc(-c2ccc(Cl)cc2)oc1COC(C)(C)C(=O)O` [Romazarit] here?
**A.** The value was greater than 46 µM.

**Q.** With `CCOC(=O)Cc1ccc(-c2ccccc2)cc1` [FELBINAC ETHYL] as the compound, how does the “IC50 of cell viability” value read?
**A.** The value was greater than 46 µM.

**Q.** For `CC(=O)OCC(CCn1cnc2cnc(N)nc21)COC(C)=O` [FAMCICLOVIR], which “IC50 of cell viability” value is on record?
**A.** Its value is greater than 46 µM.

**Q.** For `C#CCN(C)[C@@H](C)Cc1ccccc1` [Selegiline hydrochloride], which “IC50 of cell viability” value is on record?
**A.** Its value is greater than 46 µM.

**Q.** Which “IC50 of cell viability” value does the source give for `Cl.NCCS` [Cysteamine hydrochloride] here?
**A.** The value was greater than 46 µM.

**Q.** With `O=C(Cn1cnnn1)N[C@@H]1C(=O)N2C(C(=O)O)=C(CSc3nncs3)CS[C@H]12` [Ceftezole sodium] as the compound, how does the “IC50 of cell viability” value read?
**A.** Its value is greater than 46 µM.

**Q.** How did the “IC50 of cell viability” value turn out when `CNC1C(O)C(OC2C(NC(=O)C(O)CN)CC(N)C(OC3OC(CN)C(O)C(O)C3O)C2O)OCC1(C)O` (stereo unspecified) [Isepamicin] was run?
**A.** Its value is greater than 46 µM.

**Q.** How did the “IC50 of cell viability” value turn out when `O=[S+]([O-])(O)CCC[S+](=O)([O-])O.[NaH]` [1,3-PROPANEDISULFONIC ACID, DISODIUM SALT] was run?
**A.** The value was greater than 46 µM.

**Q.** How did the “IC50 of cell viability” value turn out when `Cc1c(Cl)cccc1Nc1ccccc1C(=O)O` [TOLFENAMIC ACID] was run?
**A.** The value was greater than 46 µM.

**Q.** `[Na+].C[N]1N=NN=C1SC\C2=C(\[N@]3[C@@H](SC2)[C@H](NC(=O)[C@@H](O)C4=CC=CC=C4)C3=O)C([O-])=O` [Cefamandole sodium salt] was tested. Which “IC50 of cell viability” value did it give?
**A.** Its value is greater than 46 µM.

**Q.** `CN1CC[C@@]23C4OC5=C(OC(C)=O)C=CC(=C25)C[C@@H]1C3\C=C/C4OC(C)=O` (stereo partly specified) [3,6-Diacetylmorphine] was tested. Which “IC50 of cell viability” value did it give?
**A.** The value was greater than 46 µM.

**Q.** For `CCCCCCCCNC(C)C(O)c1ccc(SC(C)C)cc1` (stereo unspecified) [SULOCTIDIL], which “IC50 of cell viability” value is on record?
**A.** The value was greater than 46 µM.

**Q.** Which “IC50 of cell viability” value does the source give for `N[C@H](Cc1c[nH]c2ccccc12)C(=O)O` [D-TRYPTOPHAN] here?
**A.** Its value is greater than 46 µM.

**Q.** For `Nc1nc(O)c2c(CCc3ccc(C(=O)N[C@H](CCC(=O)[O-])C(=O)[O-])cc3)c[nH]c2n1` [PEMETREXED], which “IC50 of cell viability” value is on record?
**A.** Its value is greater than 46 µM.

**Q.** `N=C(N)N.O=C(O)O` [GUANIDINE CARBONATE] was tested. Which “IC50 of cell viability” value did it give?
**A.** Its value is greater than 46 µM.

**Q.** For `CC(=O)[C@@]1(O)CC[C@H]2[C@@H]3C=C(Cl)C4=CC(=O)CC[C@]4(C)[C@H]3CC[C@@]21C` [Chlormadinone], which “IC50 of cell viability” value is on record?
**A.** Its value is greater than 46 µM.

**Q.** With `COC(=O)N[C@H](C(=O)N[C@@H](Cc1ccccc1)[C@@H](O)CN(Cc1ccc(-c2ccccn2)cc1)NC(=O)[C@@H](NC(=O)OC)C(C)(C)C)C(C)(C)C` [Atazanavir] as the compound, how does the “IC50 of cell viability” value read?
**A.** Its value is greater than 46 µM.

**Q.** `CC(N)C(=O)OC(C)(C)Cc1ccc(Cl)cc1` (stereo unspecified) [ALAPROCLATE] was tested. Which “IC50 of cell viability” value did it give?
**A.** The value was greater than 46 µM.

**Q.** With `CCCN[C@H]1CCc2nc(N)sc2C1` [PRAMIPEXOLE DIHYDROCHLORIDE] as the compound, how does the “IC50 of cell viability” value read?
**A.** The value was greater than 46 µM.

**Q.** How did the “IC50 of cell viability” value turn out when `CC(C(=O)O)c1ccc2c(c1)Cc1cccnc1O2` (stereo unspecified) [PRANOPROFEN] was run?
**A.** Its value is greater than 46 µM.

**Q.** Which “IC50 of cell viability” value does the source give for `Cc1ccccc1OCC(O)CNCCOc1ccc(C(N)=O)cc1` (stereo unspecified) [TOLAMOLOLUM] here?
**A.** The value was greater than 46 µM.

**Q.** For `CC[C@H](c1ccccc1)c1noc(CCN(CC)CC)n1` [Proxazole citrate], which “IC50 of cell viability” value is on record?
**A.** Its value is greater than 46 µM.

**Q.** With `NC(=O)c1ccccc1O` [SALICYLAMIDE] as the compound, how does the “IC50 of cell viability” value read?
**A.** Its value is greater than 46 µM.

**Q.** With `COc1cc(CC(C)N)cc(OC)c1OC` (stereo unspecified) [(?)-3,4,5-Trimethoxyamphetamine] as the compound, how does the “IC50 of cell viability” value read?
**A.** The value was greater than 46 µM.

**Q.** How did the “IC50 of cell viability” value turn out when `C[N+]1(C)CCC(OC(=O)C(O)(c2ccccc2)C2CCCC2)C1` (stereo unspecified) [Glycopyrrolate bromide] was run?
**A.** The value was greater than 46 µM.

**Q.** `C[C@@]12CC[C@H]3[C@@H](CC\C4=C\C(=O)CC[C@@]34C)[C@H]1CC[C@H]2C(=O)CO` [Deoxycorticosterone] was tested. Which “IC50 of cell viability” value did it give?
**A.** The value was greater than 46 µM.

**Q.** Which “IC50 of cell viability” value does the source give for `COc1cc(/C=C/C(=O)N2CCN(CC(=O)N3CCCC3)CC2)cc(OC)c1OC` [CINEPAZIDE MALEATE] here?
**A.** The value was greater than 46 µM.

**Q.** With `CC(=O)NC(CC(C)C)C(=O)O` (stereo in doubt) [ACETYL-L-LEUCINE] as the compound, how does the “IC50 of cell viability” value read?
**A.** The value was greater than 46 µM.

**Q.** How did the “IC50 of cell viability” value turn out when `CCCCCCCC/C=C\CCCCCCCC(=O)O` [Oleic acid] was run?
**A.** The value was greater than 46 µM.

**Q.** Which “IC50 of cell viability” value does the source give for `CCC(=O)OCC(=O)[C@@]1(OC(=O)CC)[C@H](C)C[C@@H]2[C@@H]3[C@H](Cl)C\C4=C\C(=O)\C=C/[C@@]4(C)[C@H]3[C@@H](O)C[C@@]12C` [Alclometasone dipropionate] here?
**A.** The value was greater than 46 µM.
